The values below come from patent US11331314B2, “Amine substituted triazole derivatives and uses thereof” (Bayer Pharma Aktiengesellschaft, priority 2017, dated 2022).

One assay has as its target human V1a receptor (Homo sapiens, UniProt P37288). The assay can be described thus: Cellular in vitro assay for determining vasopressin receptor activity, V1a receptor cell line (photoprotein luminescence). Particulars: for IC50: CHO cell line transfected with the human V1a receptor, agonist [Arg8]-vasopressin at EC50 concentration, read-out: IC50 hV1a; for ratio IC50 hV2/hV1a: selectivity ratio of the cellular IC50 values. Format: cell-based. The protocol:
(§1) B-1. Cellular In Vitro Assay for Determining Vasopressin Receptor Activity
(§2) The identification of agonists and antagonists of the V1a and V2 vasopressin receptors from humans, rats and dogs as well as the quantification of the activity of the compounds of the invention is carried out using recombinant cell lines. These cell lines originally derive from a hamster's ovary epithelial cell (Chinese Hamster Ovary, CHO K1, ATCC: American Type Culture Collection, Manassas, Va. 20108, USA). The test cell lines constitutively express the human, rat or dog V1a or V2 receptors. In case of the Gαq-coupled V1a receptors, cells are also stably transfected with a modified form of the calcium-sensitive photoproteins aequorin (human and rat V1a) or obelin (dog V1a), which, after reconstitution with the cofactor coelenterazine, emit light when there are increases in free calcium concentrations [Rizzuto R, Simpson A W, Brini M, Pozzan T, Nature 358, 325-327 (1992); Illarionov B A, Bondar V S, Illarionova V A, Vysotski E S, Gene 153 (2), 273-274 (1995)]. The resulting vasopressin receptor cells react to stimulation of the recombinantly expressed V1a receptors by intracellular release of calcium ions, which can be quantified by the resulting photoprotein luminescence. The Gs-coupled V2 receptors are stably transfected into cell lines expressing the gene for firefly luciferase under control of a CRE-responsible promoter. Activation of V2 receptors induces the activation of the CRE-responsive promoter via cAMP increase, thereby inducing the expression of firefly luciferase. The light emitted by photoproteins of V1a cell lines as well as the light emitted by firefly luciferase of V2 cell lines corresponds to the activation or inhibition of the respective vasopressin receptor. The bioluminescence of the cell lines is detected using a suitable luminometer [Milligan G, Marshall F, Rees S, Trends in Pharmacological Sciences 17, 235-237 (1996)].
Vasopressin V1a Receptor Cell Lines:
On the day before the assay, the cells are plated out in culture medium (DMEM/F12, 2% FCS, 2 mM glutamine, 10 mM HEPES, 5 μg/ml coelenterazine) in 384-well microtiter plates and kept in a cell incubator (96% humidity, 5% v/v CO2, 37° C.). On the day of the assay, test compounds in various concentrations are placed for 10 minutes in the wells of the microtiter plate before the agonist [Arg^8]-vasopressin at EC50 concentration is added. The resulting light signal is measured immediately in a luminometer.
(§3) Table 1A below lists individual IC50 values for the compounds of the invention (including racemic mixtures as well as separated enantiomers) that were obtained from cell lines transfected with the human V1a or V2 receptor: […]

In the next assay the target is T1, human V2 receptor (Homo sapiens, UniProt P30518).
T1 construct: expressed in transfected cells; host or cells: CHO K1 (ATCC) expressing firefly luciferase under a CRE-responsive promoter
T1 sequence (P30518 whole entry): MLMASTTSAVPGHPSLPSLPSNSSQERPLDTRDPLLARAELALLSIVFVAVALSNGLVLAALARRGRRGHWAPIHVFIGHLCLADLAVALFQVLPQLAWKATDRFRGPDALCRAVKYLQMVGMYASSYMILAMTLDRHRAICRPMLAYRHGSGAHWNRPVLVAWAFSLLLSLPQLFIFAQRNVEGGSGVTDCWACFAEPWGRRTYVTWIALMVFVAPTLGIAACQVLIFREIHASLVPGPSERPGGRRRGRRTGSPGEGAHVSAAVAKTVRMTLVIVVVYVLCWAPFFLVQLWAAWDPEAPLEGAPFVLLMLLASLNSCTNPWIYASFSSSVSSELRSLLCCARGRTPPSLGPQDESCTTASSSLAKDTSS
The assay can be described thus: Cellular in vitro assay for determining vasopressin receptor activity, V2 receptor cell line (CRE-luciferase). Format: cell-based. As to conditions: CHO cell line transfected with the human V2 receptor; agonist [Arg8]-vasopressin at EC50 concentration; read-out: IC50 hV2. Here is the method: as §1, §2
Vasopressin V2 Receptor Cell Lines:
On the day before the assay, the cells are plated out in culture medium (DMEM/F12, 2% FCS, 2 mM glutamine, 10 mM HEPES) in 384-well microtiter plates and kept in a cell incubator (96% humidity, 5% v/v CO2, 37° C.). On the day of the assay, test compounds in various concentrations and the agonist [Arg^8]-vasopressin at EC50 concentration are added together to the wells, and plates are incubated for 3 hours in a cell incubator. Upon addition of the cell lysis reagent Triton™ and the substrate luciferin, luminescence of firefly luciferase is measured in a luminometer.
as §3

Sequence of human V1a receptor (P37288 whole entry): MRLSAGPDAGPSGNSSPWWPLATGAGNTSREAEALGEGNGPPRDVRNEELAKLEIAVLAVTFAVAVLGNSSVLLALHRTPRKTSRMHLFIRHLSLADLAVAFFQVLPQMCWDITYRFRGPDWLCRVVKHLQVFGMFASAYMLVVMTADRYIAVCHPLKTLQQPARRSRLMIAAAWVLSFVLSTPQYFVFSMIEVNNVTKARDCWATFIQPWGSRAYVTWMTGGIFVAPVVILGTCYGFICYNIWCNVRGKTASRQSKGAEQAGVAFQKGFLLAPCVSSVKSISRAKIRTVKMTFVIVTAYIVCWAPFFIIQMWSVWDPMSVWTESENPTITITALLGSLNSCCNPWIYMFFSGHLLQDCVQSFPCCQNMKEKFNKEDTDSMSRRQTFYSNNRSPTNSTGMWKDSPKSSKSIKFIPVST

In the case of `O=C1CCC(Nc2nc(Cn3nc(-c4ccc(Cl)cc4)n(C[C@H](O)C(F)(F)F)c3=O)nn2-c2ccccc2Cl)CN1` (mixture of isomers) [Example 60, 5-{[1-(2-Chlorophenyl)-3-({3-(4-chlorophenyl)-5-oxo-4-[(2S)-3,3,3-trifluoro-2-hydroxypropyl]-4,5-dihydro-1H-1,2,4-triazol-1-yl}methyl)-1H-1,2,4-triazol-5-yl]amino}piperidin-2-one], the IC50 on human V1a receptor is 0.44 nM; at human V2 receptor, 5.4 nM. In addition, the “ratio IC50 hV2/hV1a” value on human V1a receptor was found to be 12.3.
On to `O=C1CCC(CNc2nc(Cn3nc(-c4ccc(Cl)cc4)n(C[C@H](O)C(F)(F)F)c3=O)nn2-c2ccccc2Cl)N1` (mixture of isomers) [Example 63, 5-(4-Chlorophenyl)-2-{[1-(2-chlorophenyl)-5-({[5-oxopyrrolidin-2-yl]methyl}amino)-1H-1,2,4-triazol-3-yl]methyl}-4-[(2S)-3,3,3-trifluoro-2-hydroxypropyl]-2,4-dihydro-3H-1,2,4-triazol-3-one], for which, on human V1a receptor, the 50% inhibitory concentration (IC50) amounted to 0.42 nM and the “ratio IC50 hV2/hV1a” value turned out to be 14.0. The IC50 on human V2 receptor is 5.8 nM.
For `O=c1n(Cc2nc(N3CCNC(C(F)(F)F)C3)n(-c3ccccc3Cl)n2)nc(-c2ccc(Cl)cc2)n1C[C@H](O)C(F)(F)F` (mixture of isomers) [Example 66], in that order: 0.37 nM, 18.9 and 6.9 nM.
Take `O=C1CC(Nc2nc(Cn3nc(-c4ccc(Cl)cc4)n(C[C@H](O)C(F)(F)F)c3=O)nn2-c2ccccc2Cl)CN1` (mixture of isomers) [Example 69, 5-(4-Chlorophenyl)-2-{[1-(2-chlorophenyl)-5-{[5-oxopyrrolidin-3-yl]amino}-1H-1,2,4-triazol-3-yl]methyl}-4-[(2S)-3,3,3-trifluoro-2-hydroxypropyl]-2,4-dihydro-3H-1,2,4-triazol-3-one]: at human V1a receptor, the concentration for half-maximal inhibition (IC50) was found to be 1.05 nM and the “ratio IC50 hV2/hV1a” value stood at 4.2. Also, the 50% inhibitory concentration (IC50) at human V2 receptor stood at 4.35 nM.
For `O=c1n(Cc2nc(N3CCOC(C(F)(F)F)C3)n(-c3ccccc3Cl)n2)nc(-c2ccc(Cl)cc2)n1C[C@H](O)C(F)(F)F` (mixture of isomers) [Example 77, 5-(4-Chlorophenyl)-2-({1-(2-chlorophenyl)-5-[2-(trifluoromethyl)morpholin-4-yl]-1H-1,2,4-triazol-3-yl}methyl)-4-[(2S)-3,3,3-trifluoro-2-hydroxypropyl]-2,4-dihydro-3H-1,2,4-triazol-3-one] the same measures were 1.5 nM, 26.0 and 39 nM.
For `O=C1CCC(Nc2nc(Cn3nc(-c4ccc(Cl)cc4)n(C[C@H](O)C(F)(F)F)c3=O)nn2CCC(F)(F)F)CN1` (mixture of isomers) [Example 99, 5-{[3-({3-(4-Chlorophenyl)-5-oxo-4-[(2S)-3,3,3-trifluoro-2-hydroxypropyl]-4,5-dihydro-1H-1,2,4-triazol-1-yl}methyl)-1-(3,3,3-trifluoropropyl)-1H-1,2,4-triazol-5-yl]amino}piperidin-2-one] the same measures were 10.2 nM, 34.5 and 350 nM.
For `O=c1n(Cc2nc(N3CCOC(C(F)(F)F)C3)n(CCC(F)(F)F)n2)nc(-c2ccc(Cl)cc2)n1C[C@H](O)C(F)(F)F` (mixture of isomers) [Example 103, 5-(4-Chlorophenyl)-4-[(2S)-3,3,3-trifluoro-2-hydroxypropyl]-2-({5-[2-(trifluoromethyl)morpholin-4-yl]-1-(3,3,3-trifluoropropyl)-1H-1,2,4-triazol-3-yl}methyl)-2,4-dihydro-3H-1,2,4-triazol-3-one], in that order: 30 nM, 8.2 and 245 nM.
As for `O=c1n(Cc2nc(N3CCNC(C(F)(F)F)C3)n(CCC(F)(F)F)n2)nc(-c2ccc(Cl)cc2)n1C[C@H](O)C(F)(F)F` (mixture of isomers) [Example 106, 5-(4-Chlorophenyl)-4-[(2S)-3,3,3-trifluoro-2-hydroxypropyl]-2-({5-[3-(trifluoromethyl)piperazin-1-yl]-1-(3,3,3-trifluoropropyl)-1H-1,2,4-triazol-3-yl}methyl)-2,4-dihydro-3H-1,2,4-triazol-3-one], at human V1a receptor, the IC50 was 26.5 nM and the “ratio IC50 hV2/hV1a” value worked out at 11.7. For the same compound, the 50% inhibitory concentration (IC50) on human V2 receptor was 310 nM.
For `NC(CNc1nc(Cn2nc(-c3ccc(Cl)cc3)n(C[C@H](O)C(F)(F)F)c2=O)nn1-c1ccccc1Cl)C(F)(F)F` (single isomer, unassigned) [Example 7], in that order: 0.22 nM, 5.2 and 1.12 nM.
Regarding `NC(CNc1nc(Cn2nc(-c3ccc(Cl)cc3)n(C[C@H](O)C(F)(F)F)c2=O)nn1-c1ccccc1Cl)C(F)(F)F` (single isomer, unassigned) [Example 8], at human V1a receptor, the IC50 amounted to 0.31 nM and the “ratio IC50 hV2/hV1a” value is reported as 5.5. For the same compound, at human V2 receptor, the IC50 was found to be 1.69 nM.
As for `O=c1n(Cc2nc(N3CCC(O)(C(F)(F)F)C3)n(-c3ccccc3Cl)n2)nc(-c2ccc(Cl)cc2)n1C[C@H](O)C(F)(F)F` (single isomer, unassigned) [Example 14], at human V1a receptor, the 50% inhibitory concentration (IC50) was determined as 0.96 nM and the “ratio IC50 hV2/hV1a” value was 6.1. Moreover, at human V2 receptor, the half-inhibitory concentration (IC50) is 5.85 nM.
For `O=c1n(Cc2nc(N3CCC(O)(C(F)(F)F)C3)n(-c3ccccc3Cl)n2)nc(-c2ccc(Cl)cc2)n1C[C@H](O)C(F)(F)F` (single isomer, unassigned) [Example 15], in that order: 3.4 nM, 3.4 and 11.4 nM.
Regarding `O=C1NCCC1Nc1nc(Cn2nc(-c3ccc(Cl)cc3)n(C[C@H](O)C(F)(F)F)c2=O)nn1-c1ccccc1Cl` (single isomer, unassigned) [Example 17], on human V1a receptor, the IC50 is 0.5 nM and the “ratio IC50 hV2/hV1a” value was 3.8. Also, the IC50 at human V2 receptor amounted to 1.9 nM.
For `O=C1NCCC1Nc1nc(Cn2nc(-c3ccc(Cl)cc3)n(C[C@H](O)C(F)(F)F)c2=O)nn1-c1ccccc1Cl` (single isomer, unassigned) [Example 18], in that order: 0.81 nM, 1.7 and 1.35 nM.
With `CC1(O)CCN(c2nc(Cn3nc(-c4ccc(Cl)cc4)n(C[C@H](O)C(F)(F)F)c3=O)nn2-c2ccccc2Cl)C1` (single isomer, unassigned) [Example 30], at human V1a receptor, the 50% inhibitory concentration (IC50) was determined as 0.38 nM and the “ratio IC50 hV2/hV1a” value turned out to be 7.2. Moreover, the half-inhibitory concentration (IC50) on human V2 receptor was 2.7 nM.
Regarding `CC1(O)CCN(c2nc(Cn3nc(-c4ccc(Cl)cc4)n(C[C@H](O)C(F)(F)F)c3=O)nn2-c2ccccc2Cl)C1` (single isomer, unassigned) [Example 31], at human V1a receptor, the IC50 turned out to be 1.08 nM and the “ratio IC50 hV2/hV1a” value is 7.7. On human V2 receptor, the half-maximal inhibitory concentration (IC50) came out at 8.35 nM.
For `O=C1CCC(Nc2nc(Cn3nc(-c4ccc(Cl)cc4)n(C[C@H](O)C(F)(F)F)c3=O)nn2-c2ccccc2Cl)CN1` (single isomer, unassigned) [Example 61], in that order: 1.35 nM, 7.4 and 10.1 nM.
For `O=C1CCC(Nc2nc(Cn3nc(-c4ccc(Cl)cc4)n(C[C@H](O)C(F)(F)F)c3=O)nn2-c2ccccc2Cl)CN1` (single isomer, unassigned) [Example 62] the same measures were 1.3 nM, 7.3 and 9.45 nM.
For `O=C1CCC(CNc2nc(Cn3nc(-c4ccc(Cl)cc4)n(C[C@H](O)C(F)(F)F)c3=O)nn2-c2ccccc2Cl)N1` (single isomer, unassigned) [Example 64] the same measures were 0.8 nM, 5.5 and 4.35 nM.

As a reminder, the IC50 is the midpoint of a concentration-inhibition curve.
